Measurements from ChEMBL document CHEMBL1201862, “PubChem BioAssay data set” (2004).
Active and inactive are the calls of the source.

Key:
fMet-Leu-Phe receptor = fMet-Leu-Phe receptor (Homo sapiens, UniProt P21462); test: formyl peptide receptor binders – dose response (AID 519); assay type: functional
[1] = viability loss in HepG2 hepatoma cells – cell-based, ATP luminescence, cherry-pick, activator set 2, cytotoxicity control, dose response (AID 1053143); assay type: functional
[2] = THP-1 cell cytotoxicity, dose response, cytotoxicity control for non-replicating M. tuberculosis project (AID 489025); assay type: functional
[3] = HepG2 cell cytotoxicity, dose response, cytotoxicity control for non-replicating M. tuberculosis project (AID 489018); assay type: functional; details: Mycobacterium tuberculosis
[4] = Vero E6 cell cytotoxicity, dose response, cytotoxicity control for non-replicating M. tuberculosis project, secondary assay (AID 492998); assay type: functional, VeroE6; details: Vero C1008
[5] = blockers of HIV-1 envelope-mediated cell-cell fusion – cherry-pick, dose response (AID 652057); assay type: functional, cell-based
[6] = blockers of HIV-1 ZM109 envelope-driven cell-cell fusion – HeLa effector, CEM target cells, luciferase, cherry-pick, dose response (AID 652058); assay type: functional, cell-based;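 note: luciferase signal from HIV-1 Env mediated cell-cell fusion of effector and target cells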
Albumin = Albumin (Bos taurus, UniProt P02769); test: Counterscreen for inhibitors of T-cell receptor (TCR)-CD3 interaction: Fluorescence-based biochemical high throughput dose response assay to identify inhibitors of T-cell receptor (TCR)-CD3 interaction using a TAMRA-labeled BSA probe.; assay type: functional
[7] = off-target signal loss in HeLa-CEM21 co-culture – HeLa F-luc CTL cells, cherry-picked, counter-screen for HIV-1 Env fusion inhibitor project, dose response (AID 652040); assay type: functional, cell-based;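 note: potency for signal decrease marking cytotoxic or nonspecific inhibition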
[8] = HIV-1 AD8 envelope cell-cell fusion blockers – cherry-pick, dose response (AID 652062); assay type: functional, cell-based;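 note: luciferase signal from cell-cell fusion driven by HIV-1 clade B AD8 Env; potency is for inhibitors of fusion seen as a drop in luminescence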
[9] = biological target: T1, Heat shock factor protein 1 (Mus musculus, UniProt P38532); test: enhancement of HSF1-driven luciferase signal – cell-based, NIH3T3, luminescence, dose retest, confirmation (AID 435004); assay type: functional;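 note: stress induced by proteasome inhibitor MG132 added 30 min after compound; luciferase reporter driven by HSF1 response element in NIH3T3 cells; actives raise luminescence as potentiators of the MG132 stress response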
T1 sequence (P38532 whole entry): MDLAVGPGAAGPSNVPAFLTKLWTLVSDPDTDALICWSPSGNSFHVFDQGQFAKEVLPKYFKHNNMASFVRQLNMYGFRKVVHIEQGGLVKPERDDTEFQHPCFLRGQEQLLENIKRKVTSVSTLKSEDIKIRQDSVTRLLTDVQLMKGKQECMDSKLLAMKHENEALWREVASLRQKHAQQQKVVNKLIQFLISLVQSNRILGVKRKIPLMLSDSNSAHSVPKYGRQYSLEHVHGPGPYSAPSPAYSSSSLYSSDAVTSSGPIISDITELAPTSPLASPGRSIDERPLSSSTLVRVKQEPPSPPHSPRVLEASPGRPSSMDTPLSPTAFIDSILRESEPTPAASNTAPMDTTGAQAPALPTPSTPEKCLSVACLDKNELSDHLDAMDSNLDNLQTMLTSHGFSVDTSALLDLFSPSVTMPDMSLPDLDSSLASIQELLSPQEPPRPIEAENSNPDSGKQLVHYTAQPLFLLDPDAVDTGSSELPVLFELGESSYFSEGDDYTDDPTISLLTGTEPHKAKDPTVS

Vero [10] = test: cells; assay type: functional, cell-based; details: Chlorocebus sabaeus
Vero [11] = test: cells; assay type: functional; details: Chlorocebus sabaeus
Large T antigen = Large T antigen (Simian virus 40, UniProt P03070); assay type: functional, Betapolyomavirus macacae;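 note: Confirmatory-stage PubChem screen for compounds that inhibit SV40 T antigen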
[12] = HGIII-sPLA2 enzyme inhibition potency – biochemical, QFRET, IC50, dose response (AID 743457);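 note: green fluorescence rise as the enzyme cleaves BODIPY PC-A2 in liposomes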
cells [13] = assay type: functional, cell-based
[14] = biological target: T2, Trace amine-associated receptor 1 (Homo sapiens, UniProt Q96RJ0); test: Fluorescence-based cell-based high throughput dose response assay to identify agonists of the human trace amine associated receptor 1 (TAAR1).; assay type: functional
T2 sequence (Q96RJ0 whole entry): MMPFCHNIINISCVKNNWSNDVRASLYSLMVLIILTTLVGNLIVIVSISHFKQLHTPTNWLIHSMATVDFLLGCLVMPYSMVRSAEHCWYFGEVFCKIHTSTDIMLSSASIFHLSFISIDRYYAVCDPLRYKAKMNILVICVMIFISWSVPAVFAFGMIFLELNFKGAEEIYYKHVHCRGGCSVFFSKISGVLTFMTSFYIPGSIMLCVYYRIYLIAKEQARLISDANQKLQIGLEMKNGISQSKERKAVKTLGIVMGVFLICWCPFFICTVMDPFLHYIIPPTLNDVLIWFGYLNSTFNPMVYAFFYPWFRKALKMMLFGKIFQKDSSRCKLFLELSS

[15] = biological target: T2, Trace amine-associated receptor 1; test: Counterscreen for agonists of the human trace amine associated receptor 1 (hTAAR1): Fluorescence-based cell-based high throughput dose response assay to identify hTAAR1 agonist that also desensitize TAAR1 receptor response.; assay type: functional
cells [16] = assay type: functional, cell-based; remark: listed apart in the source
Protein skinhead-1 = biological target: T3, Protein skinhead-1 (Caenorhabditis elegans, UniProt P34707); assay type: functional
T3 sequence (P34707 whole entry): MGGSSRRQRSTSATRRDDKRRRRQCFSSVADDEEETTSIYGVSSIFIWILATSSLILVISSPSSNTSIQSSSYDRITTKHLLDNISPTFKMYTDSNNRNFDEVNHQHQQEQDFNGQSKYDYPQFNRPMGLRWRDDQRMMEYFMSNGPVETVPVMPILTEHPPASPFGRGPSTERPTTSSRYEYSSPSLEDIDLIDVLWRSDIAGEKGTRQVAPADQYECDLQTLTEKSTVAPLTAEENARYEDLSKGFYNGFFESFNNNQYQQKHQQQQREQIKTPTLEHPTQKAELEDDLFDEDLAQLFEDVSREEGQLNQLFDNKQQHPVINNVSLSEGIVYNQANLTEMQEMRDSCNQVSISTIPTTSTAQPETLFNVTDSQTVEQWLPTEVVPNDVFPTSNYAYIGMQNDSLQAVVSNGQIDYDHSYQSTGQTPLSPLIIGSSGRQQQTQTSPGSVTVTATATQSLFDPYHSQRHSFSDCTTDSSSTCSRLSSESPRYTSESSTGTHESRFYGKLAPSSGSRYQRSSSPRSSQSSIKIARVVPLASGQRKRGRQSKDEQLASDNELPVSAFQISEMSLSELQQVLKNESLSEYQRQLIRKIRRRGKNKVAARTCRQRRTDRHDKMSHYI

[17] = biological target: DNA repair protein RAD52 homolog (Homo sapiens, UniProt P43351); assay type: functional, biochemical
[18] = biological target: T4, Histone-lysine N-methyltransferase NSD2 (Homo sapiens, UniProt O96028); assay type: biochemical
T4 sequence (O96028 whole entry): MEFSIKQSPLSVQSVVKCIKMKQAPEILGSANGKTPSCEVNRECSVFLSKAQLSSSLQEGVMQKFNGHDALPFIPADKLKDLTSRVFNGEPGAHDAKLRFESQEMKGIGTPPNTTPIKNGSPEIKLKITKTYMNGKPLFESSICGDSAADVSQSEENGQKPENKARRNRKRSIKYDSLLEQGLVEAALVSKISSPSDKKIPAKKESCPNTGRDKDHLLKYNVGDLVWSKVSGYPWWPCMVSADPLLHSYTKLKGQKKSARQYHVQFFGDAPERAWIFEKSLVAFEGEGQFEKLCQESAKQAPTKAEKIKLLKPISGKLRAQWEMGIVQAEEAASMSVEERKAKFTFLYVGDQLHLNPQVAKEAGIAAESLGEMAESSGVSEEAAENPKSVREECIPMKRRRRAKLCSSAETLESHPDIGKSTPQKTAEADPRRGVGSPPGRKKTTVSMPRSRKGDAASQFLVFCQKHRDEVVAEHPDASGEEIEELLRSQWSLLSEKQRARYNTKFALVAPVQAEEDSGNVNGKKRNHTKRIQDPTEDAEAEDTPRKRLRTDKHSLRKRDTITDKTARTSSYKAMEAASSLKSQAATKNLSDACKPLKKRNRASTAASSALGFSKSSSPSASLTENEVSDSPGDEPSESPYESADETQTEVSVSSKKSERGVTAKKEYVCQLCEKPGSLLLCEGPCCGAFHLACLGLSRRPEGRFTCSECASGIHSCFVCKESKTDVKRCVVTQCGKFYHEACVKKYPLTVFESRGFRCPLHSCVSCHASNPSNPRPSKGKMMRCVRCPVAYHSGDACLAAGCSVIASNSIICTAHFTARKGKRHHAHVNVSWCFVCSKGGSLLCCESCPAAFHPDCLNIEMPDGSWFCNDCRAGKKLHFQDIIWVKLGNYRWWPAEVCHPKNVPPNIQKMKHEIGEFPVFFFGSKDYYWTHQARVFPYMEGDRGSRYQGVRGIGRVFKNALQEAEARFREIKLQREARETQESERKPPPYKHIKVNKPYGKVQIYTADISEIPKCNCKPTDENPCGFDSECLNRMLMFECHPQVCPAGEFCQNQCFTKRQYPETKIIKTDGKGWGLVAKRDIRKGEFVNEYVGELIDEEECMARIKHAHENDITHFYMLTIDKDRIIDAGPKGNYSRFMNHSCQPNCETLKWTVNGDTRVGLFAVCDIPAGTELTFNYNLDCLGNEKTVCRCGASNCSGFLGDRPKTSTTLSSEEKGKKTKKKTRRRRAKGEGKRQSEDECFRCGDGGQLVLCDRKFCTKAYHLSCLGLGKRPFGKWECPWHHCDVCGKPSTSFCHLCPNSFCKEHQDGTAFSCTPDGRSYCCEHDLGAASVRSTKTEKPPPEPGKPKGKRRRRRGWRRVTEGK

[19] = biological target: Fructose-bisphosphate aldolase (Mycobacterium tuberculosis, UniProt P9WQA3); test: Fluorescence-based biochemical high throughput dose response assay for inhibitors of the fructose-bisphosphate aldolase (FBA) of M. tuberculosis.; assay type: functional
Paired box protein Pax-8 = Paired box protein Pax-8 (Homo sapiens, UniProt Q06710); test: PAX8 transcriptional activity inhibition in RMG-I – RMG-I cells, luciferase, cherry-pick, dose response (AID 687027); assay type: functional, cell-based;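 note: luciferase reporter driven by Pax8 target thyroperoxidase promoter measured by SteadyGlo luminescence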
[20] = OVCAR-3 cell viability loss – plate reader, dry powder samples, PAX8 inhibitor project, dose response (AID 743044); assay type: functional, cell-based
[21] = IGROV1 cell killing – plate reader, dry powder samples, PAX8 inhibitor project, dose response (AID 743043); assay type: functional, cell-based; details: IGROV-1
[22] = OVCAR8 cell viability loss – plate reader, dry powder samples, PAX8 project, dose response (AID 743197); assay type: functional, cell-based; details: OVCAR-8
[23] = Late stage assay provider results from the probe development effort to identify selective inhibitors of heat shock protein 90 (HSP90): Absorbance-based cell proliferation assay in SKBR3 cells.; assay type: functional; details: SK-BR-3
[24] = Late stage assay provider results from the probe development effort to identify selective inhibitors of heat shock protein 90 (HSP90): Absorbance-based cell proliferation assay in MCF7 cells.; assay type: functional

Albumin, sequence (P02769 whole entry, the tested form may be a part): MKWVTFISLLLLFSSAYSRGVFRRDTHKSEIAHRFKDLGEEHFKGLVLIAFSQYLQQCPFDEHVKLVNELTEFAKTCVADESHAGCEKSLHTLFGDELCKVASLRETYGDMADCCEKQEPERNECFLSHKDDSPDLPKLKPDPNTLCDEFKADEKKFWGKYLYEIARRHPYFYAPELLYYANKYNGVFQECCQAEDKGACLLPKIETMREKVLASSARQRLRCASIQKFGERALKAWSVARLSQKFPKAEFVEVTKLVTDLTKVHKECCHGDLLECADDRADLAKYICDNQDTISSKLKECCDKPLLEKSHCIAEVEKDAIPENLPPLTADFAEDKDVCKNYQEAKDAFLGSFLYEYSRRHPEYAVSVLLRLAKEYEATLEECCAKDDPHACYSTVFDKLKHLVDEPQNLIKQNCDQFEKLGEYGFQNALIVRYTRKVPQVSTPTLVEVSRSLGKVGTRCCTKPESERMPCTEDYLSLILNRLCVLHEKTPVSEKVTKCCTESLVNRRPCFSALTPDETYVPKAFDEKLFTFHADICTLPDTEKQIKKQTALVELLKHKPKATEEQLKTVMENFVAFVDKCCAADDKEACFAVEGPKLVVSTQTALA
fMet-Leu-Phe receptor, sequence (P21462 whole entry): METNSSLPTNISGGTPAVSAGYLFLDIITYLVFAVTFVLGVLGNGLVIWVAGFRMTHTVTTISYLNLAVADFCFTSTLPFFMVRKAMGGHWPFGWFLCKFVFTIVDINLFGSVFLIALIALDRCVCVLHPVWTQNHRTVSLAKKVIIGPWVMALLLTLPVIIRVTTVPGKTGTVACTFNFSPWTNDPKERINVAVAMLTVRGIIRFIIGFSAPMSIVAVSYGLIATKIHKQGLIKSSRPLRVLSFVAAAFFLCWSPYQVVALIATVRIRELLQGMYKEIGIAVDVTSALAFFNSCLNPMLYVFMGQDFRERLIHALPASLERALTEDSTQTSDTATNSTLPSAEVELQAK
DNA repair protein RAD52 homolog, sequence (P43351 whole entry): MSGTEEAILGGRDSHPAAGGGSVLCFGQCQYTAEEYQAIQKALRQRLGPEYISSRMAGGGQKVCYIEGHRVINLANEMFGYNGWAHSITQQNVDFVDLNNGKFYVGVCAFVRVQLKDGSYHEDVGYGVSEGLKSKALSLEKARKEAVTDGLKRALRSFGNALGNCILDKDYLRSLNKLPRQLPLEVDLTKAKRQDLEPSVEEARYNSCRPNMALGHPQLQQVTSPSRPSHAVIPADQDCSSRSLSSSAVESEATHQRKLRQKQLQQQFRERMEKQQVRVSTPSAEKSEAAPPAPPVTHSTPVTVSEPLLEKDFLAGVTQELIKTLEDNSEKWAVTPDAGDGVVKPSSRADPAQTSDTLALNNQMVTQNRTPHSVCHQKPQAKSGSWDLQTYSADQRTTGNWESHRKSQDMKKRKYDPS
Fructose-bisphosphate aldolase, sequence (P9WQA3 whole entry): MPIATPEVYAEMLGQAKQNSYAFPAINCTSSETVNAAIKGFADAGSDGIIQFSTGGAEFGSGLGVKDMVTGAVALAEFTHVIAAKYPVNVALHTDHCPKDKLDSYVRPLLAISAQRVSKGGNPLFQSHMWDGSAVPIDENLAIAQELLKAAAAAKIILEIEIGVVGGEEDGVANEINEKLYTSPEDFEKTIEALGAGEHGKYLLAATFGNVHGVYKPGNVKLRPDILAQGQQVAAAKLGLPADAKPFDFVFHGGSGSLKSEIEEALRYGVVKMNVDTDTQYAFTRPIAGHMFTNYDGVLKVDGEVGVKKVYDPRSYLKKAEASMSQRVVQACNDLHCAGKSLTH
Paired box protein Pax-8, sequence (Q06710 whole entry): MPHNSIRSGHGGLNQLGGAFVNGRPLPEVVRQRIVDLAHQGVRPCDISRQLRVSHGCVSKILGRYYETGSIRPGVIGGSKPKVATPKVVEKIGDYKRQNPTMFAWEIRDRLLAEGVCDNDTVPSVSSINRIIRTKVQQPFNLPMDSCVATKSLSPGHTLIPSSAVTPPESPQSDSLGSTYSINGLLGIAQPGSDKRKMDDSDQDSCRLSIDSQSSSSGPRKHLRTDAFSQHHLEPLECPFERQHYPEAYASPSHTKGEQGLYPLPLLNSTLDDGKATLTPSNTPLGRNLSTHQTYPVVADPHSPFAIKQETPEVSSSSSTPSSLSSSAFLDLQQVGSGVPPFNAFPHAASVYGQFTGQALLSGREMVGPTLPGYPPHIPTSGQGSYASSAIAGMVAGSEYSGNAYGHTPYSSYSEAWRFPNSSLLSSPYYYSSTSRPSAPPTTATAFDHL
Large T antigen, sequence (P03070 whole entry): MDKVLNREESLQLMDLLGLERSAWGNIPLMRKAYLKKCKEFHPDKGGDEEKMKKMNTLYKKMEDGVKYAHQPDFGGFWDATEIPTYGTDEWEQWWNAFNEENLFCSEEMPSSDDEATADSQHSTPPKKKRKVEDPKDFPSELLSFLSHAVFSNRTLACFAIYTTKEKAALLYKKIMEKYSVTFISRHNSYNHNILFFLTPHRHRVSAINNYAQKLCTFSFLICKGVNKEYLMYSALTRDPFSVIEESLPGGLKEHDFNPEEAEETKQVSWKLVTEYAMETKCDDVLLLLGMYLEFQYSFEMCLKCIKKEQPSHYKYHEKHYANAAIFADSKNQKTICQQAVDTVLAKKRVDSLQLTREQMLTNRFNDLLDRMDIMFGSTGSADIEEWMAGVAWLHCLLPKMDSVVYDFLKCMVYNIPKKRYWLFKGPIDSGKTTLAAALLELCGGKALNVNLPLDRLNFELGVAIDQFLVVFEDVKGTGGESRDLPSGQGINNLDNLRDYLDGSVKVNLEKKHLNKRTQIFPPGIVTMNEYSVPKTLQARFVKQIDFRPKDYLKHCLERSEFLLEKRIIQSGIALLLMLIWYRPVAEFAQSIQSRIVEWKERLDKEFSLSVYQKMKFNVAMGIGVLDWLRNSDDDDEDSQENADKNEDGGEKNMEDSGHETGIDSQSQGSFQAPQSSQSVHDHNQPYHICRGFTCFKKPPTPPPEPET

## CCc1cc2c(=O)c(-c3nc4ccccc4n3C)c(COCC(=O)O)oc2cc1OC(=O)C(C)(C)C
fMet-Leu-Phe receptor
  Ki: > 66.7 µM (inactive)

## COc1ccc(Nc2ccnc(Nc3ccc(OC)cc3)n2)cc1
[1]
  AC50: 26 µM (active)

## CC1=NN(C(=O)c2ccccc2)C(O)(c2ccc(Br)cc2)C1 (centres undefined)
[2]
  CC50: 22.8 µM (active)
[3]
  CC50: > 20 µM (active)
[4]
  CC50: > 20 µM (active)
[5]
  AC50: 9.38 µM (active)
[6]
  AC50: 8 µM (active)
Albumin
  IC50: > 94.2 µM (inactive)
[7]
  AC50: 21.6 µM (active)
[8]
  AC50: 42.2 µM (active)

## CCOc1ccc(C(=O)CCC(=O)NNC(=O)c2ccccc2O)cc1
Albumin
  IC50: > 94.1 µM (inactive)

## O=C(Nc1ccc(Cl)cn1)c1ccc([N+](=O)[O-])o1
[9]
  EC50: 20.8 µM (active)
Vero [10]
  IC50: > 25 µM (active)
Vero [11]
  CC50: 16.9 µM (active)
[1]
  AC50: 26 µM (active)

## CNc1nn(-c2cccc(Cl)c2)nc1N
Large T antigen
  IC50: 29.9 µM (active)
[12]
  IC50: > 122 µM (inactive)
fMet-Leu-Phe receptor
  Ki: > 66.7 µM (inactive)

## Cc1cc(C(=O)CN2C(=O)C(=O)N(C3CCCC3)C2=O)c(C)n1CCc1ccc(F)cc1
Cells [13]
  IC50: > 29.9 µM (inactive)
[14]
  EC50: 2.96 µM (active)
[15]
  IC50: 5.57 µM (active)
Cells [16]
  EC50: > 29.9 µM (inactive)

## Cc1c(C)n(Cc2ccccc2)c2ccc(C(=O)OCCN(C)C)cc12
Protein skinhead-1
  IC50: 58.2 µM (inactive)
[17]
  AC50: 14 µM (active)
[18]
  AC50: > 20 µM (inactive)

## CCc1c(C)nc2c(-c3ccccc3)cnn2c1O
[19]
  IC50: 3.39 µM (active)
[12]
  IC50: > 122 µM (inactive)

## COc1ccccc1S(=O)(=O)N(C)C[C@H]1Oc2cc(C#CCC3CCCC3)ccc2S(=O)(=O)N([C@H](C)CO)C[C@H]1C
Paired box protein Pax-8
  AC50: 4.83 µM (active)
[20]
  AC50: 35.5 µM (active)
[21]
  AC50: 55.4 µM (active)
[22]
  AC50: 64 µM (active)

## CC(C)[C@H](NC(=O)C1CC1)C(=O)N1CCC[C@H]1C(=O)NCCc1ccccc1Cl
Cells [13]
  IC50: > 29.9 µM (inactive)
[14]
  EC50: 3.03 µM (active)
[15]
  IC50: 3.18 µM (active)
Cells [16]
  EC50: > 29.9 µM (inactive)

## N#Cc1cc2ccc(OCc3cccc(C(=O)O)c3)cc2oc1=O
[23]
  IC50: > 100 µM (inactive)
[24]
  IC50: > 100 µM (inactive)

## COC(=O)c1cccc(COc2ccc3cc(C#N)c(=O)oc3c2)c1
[23]
  IC50: > 100 µM (inactive)
[24]
  IC50: > 100 µM (inactive)
